From patent US20170184612A1, “USE OF LEUKOCYTES AND NOVEL BIOMARKERS IN THE DIAGNOSIS, CONFIRMATION, AND TREATMENT OF A NEUROLOGICAL DISORDER” (The Trustees of Columbia University in the City of New York, priority 2014, published 2017)

Legend:
Format in all cases: cell-based, mouse
[1] = tested on: SN murine neuronal cultures; test: NM and MHC-I induction by L-DOPA in SN neuronal cultures
Excerpt: To enhance cytosolic DA, the DA precursor, L-DOPA, was used, which is accumulated by amino acid transport and converted into DA in the cytosol. Exposure to high levels of L-DOPA can produce NM in both catecholaminergic and nominally non-catecholaminergic cells (Sulzer et al., 2000). […] SN murine neuronal cultures were exposed to L-DOPA under conditions that substantially increase cytosolic DA as measured by intracellular patch electrochemistry (Mosharov et al., 2009) and promote NM production as observed by brightfield microscopy (Sulzer et al., 2000).
IFN-γ (R&D Systems) was used at a range of non-toxic concentrations for neurons or OT-1 cells (10 μg/ml-100 ng/ml, 72h). 12-well cell culture plates were pre-treated with LPS (500 ng/ml, Sigma-Aldrich), NM (5 μg/ml), α-syn, Nit-α-syn or Mut-α-syn (200 μg/ml, kindly provided by Peter Lansbury, Harvard University) for 72 h before plating 45,000-50,000 microglial cells/well for an additional 24h. A neutralizing IFN-γ antibody (1:500, PBL InterferonSource) was used to block IFN-γ released from microglia. VM neurons were incubated for 72 h with microglial medium pre-stimulated by LPS, NM, α-syn, Nit-α-syn or Mut-α-syn. As a control experiment, we directly incubated VM neurons with the same compounds in the absence of microglia. In another set of experiments, VM, cortical and striatal primary neurons were incubated for 72 h with microglial medium pre-stimulated by LPS, NM, α-syn. NM was induced in SN cultured neurons by using L-DOPA (Sulzer et al., 2000) (Sigma Aldrich). […]
(§1) Images were captured using a Leica SP5 microscope system. There was no fluorescence bleed-through of secondary antibodies under the conditions used. […]
(§2) In order to assess the proportion of TH^+ and MAP-2^+ neurons that expressed MHC-I^+, first TH^+ and MAP-2^+ neurons were counted in 24 fields surrounding the border of the well at 20× magnification. The number of TH^+ or MAP-2^+ neurons with intact soma and two or more neurites equal to or greater than the diameter of the cell soma was counted. […]

VM DA (TH+) neurons [2] = test: OT-1 T cell cytotoxicity (killing) assay on VM DA neurons
Procedure: OT-1 CD8^+ cell proliferation was assessed by BrdU incorporation. For OT-1 T cell cytotoxicity assays, DC and VM (from C57BL/6 and 56.129P2-B2mtm1Unc/J mice) cell cultures were incubated with neuronal medium or neuronal medium containing 100 ng/ml of IFN-γ (R&D Systems). Neurons were loaded with or without […] (SEQ ID NO: 9) peptide (1 μM), and, subsequently in vitro activated OT-1 cells were added at a density of 100,000 cells/well and co-incubated for 24 h.
We used the same conditions for VM cell cultures with microglial medium previously stimulated with LPS, NM or α-syn instead of IFN-γ. Neurons were pre-incubated with IFN-γ and […] (SEQ ID NO: 9) peptide as above, and then with: 1) a pan-caspase general inhibitor (Z-VAD-FMK, 20 μM, 24h, IMGENEX); 2) a specific granzyme/perforin inhibitor (concanamycin A, 100 nM, 24h, Sigma Aldrich); 3) a specific Fas/FasL antagonist (Kp7-6, 1 mM, 24h, EMD Biosciences) and 4) concanamycin A and Kp7-6 together. OT-1 cells were then added to the culture (100,000 cells/well) and maintained for 24 h.
Following immunocytochemical staining of VM neurons, we assessed the proportion of surviving DA (TH^+) and non-DA cells (MAP-2^+, TH^−). Total numbers of TH^+ and MAP-2^+ neurons were counted in 24 fields surrounding the border of the well at 20× magnification. The number of surviving TH+ neurons with an intact soma and two or more neurites equal to or greater than the diameter of the cell soma was counted and normalized to the number in untreated cultures.

VM DA (TH+) neurons [3] = test: Antigen processing and presentation, […]-MHC-I immunolabel; details: IFN-γ with extracellular SIINFEKL, positive control
Procedure: Following exposure of SN neuronal cultures to OVA or vehicle for 7 days, neurons were exposed to IFN-γ or saline for 72 h (note that these cultures were never exposed to […] (SEQ ID NO: 9)). The cultures were then double immunolabeled for TH and an antibody that recognizes only the MHC-I complex when is occupied by […] (SEQ ID NO: 9) ([…]-MHC-I). Occasional label of astrocytes, but not neurons, for […]-MHC-I was observed when the cultures were exposed to the vehicle, IFN-γ, or OVA alone (FIG. 5A). […] The results herein indicate that OVA had been processed to […] (SEQ ID NO: 9) within these mixed neuron/astrocyte cultures and loaded into the MHC-I groove within neuronal cytosol, and that the resulting complex was presented on the neuronal plasma membrane.
IFN-γ (R&D Systems) was used at a range of non-toxic concentrations for neurons or OT-1 cells (10 μg/ml-100 ng/ml, 72h). […]
as §1, §2

OT-1 CTL cells = test: OT-1 CD8+ cell proliferation by BrdU incorporation; details: combination with IFN-γ; DC and VM neuronal cultures
Excerpt: The capacity of CTLs to respond to MHC-I induced SN neurons was examined first, by following CTL proliferation using 5-bromo-2-deoxyuridine (BrdU) incorporation.
Primary DCs were obtained from mouse […] femur hematopoietic stem cells. In brief, mouse femur hematopoietic stem cells from bone marrow were harvested from the hind legs of 8 to 12-week old male wild-type C57BL/6J and plated at 2×10^6 cells/ml density in DC culture medium (DMEM supplemented with 10% FBS, lx non-essential amino acids, 2 mM L-glutamine, 1 mM sodium pyruvate and 20 mM HEPES). For differentiation to dendritic cells, 10 ng/ml of recombinant mouse GM-CSF was added to media. Cells were fed every 2 days with fresh DMEM containing GM-CSF, and the cultures were trypsinized after 8 days and plated at 4×10^5 cells/cm^2 density to be used for experiments the following day (Tallóczy et al., 2008). OT-1 CD8^+ and OT-2 CD4^+ T cell lines, a kind gift from Dr. Raphael Clynes (Department of Medicine and Microbiology, Columbia University Medical Center), express a transgene encoding T cell receptor that specifically recognizes […] (SEQ ID NO: 9) peptide (derived from OVA) bound to MHC-I H-2Kb or to MHC-II I-A/I-E (Hogquist et al., 1994). Activated primary OT-1 and OT-2 T cells were generated by the addition of […] […]
OT-1 CD8^+ cell proliferation was assessed by BrdU incorporation. […]

[4] = tested on: primary microglial cultures; test: ELISA of IFN-γ released by microglia; details: primary microglial culture
Procedure: Briefly, for microglial cultures cells dissociated from 5 cortexes of 0-3 days old C57/B16 mice were seeded onto 75 cm^2 cell culture flasks in microglial culture medium (MEM supplemented with calf serum, glucose 45%, penicillin/streptomycin, insulin (25 mg/ml) and 200 mM glutamine) in a 5% CO^2 incubator at 37° C. (Sulzer et al., 2008). Two weeks later, microglia were detached from flasks by mild shaking and plated on 12 well-plates at a density of 45,000-50,000 microglial cells/well. For neuronal cultures, the area of interest was dissected and neurons were dissociated and plated at a density of 80,000/cm′ onto a layer of rat cortical glial cells grown on round glass coverslips and maintained in culture medium without added GDNF (glial cell line-derived neurotrophic factor) in a 5% CO^2 incubator at 37° C. for 5-9 days)(Sulzer et al., 2008). IFN-γ (R&D Systems) was used at a range of non-toxic concentrations for neurons or OT-1 cells (10 μg/ml-100 ng/ml, 72h). […] The concentration of IFN-γ released by microglia (plated as above) was measured by an ELISA kit (eBioscience) that detected the amount of this proinflammatory cytokine in a range of […].

primary VM neurons = test: MHC-I expression of VM neurons after microglial conditioned medium; details: for cell surface MHC-I presentation by VM neurons: conditioned medium from microglia incubated 72 hours with the substance; for induction of neuronal MHC-I: cultures directly exposed, absence of microglial cells
Procedure: IFN-γ (R&D Systems) was used at a range of non-toxic concentrations for neurons or OT-1 cells (10 μg/ml-100 ng/ml, 72h). 12-well cell culture plates were pre-treated with LPS (500 ng/ml, Sigma-Aldrich), NM (5 μg/ml), α-syn, Nit-α-syn or Mut-α-syn (200 μg/ml, kindly provided by Peter Lansbury, Harvard University) for 72 h before plating 45,000-50,000 microglial cells/well for an additional 24h. A neutralizing IFN-γ antibody (1:500, PBL InterferonSource) was used to block IFN-γ released from microglia. VM neurons were incubated for 72 h with microglial medium pre-stimulated by LPS, NM, α-syn, Nit-α-syn or Mut-α-syn. As a control experiment, we directly incubated VM neurons with the same compounds in the absence of microglia. In another set of experiments, VM, cortical and striatal primary neurons were incubated for 72 h with microglial medium pre-stimulated by LPS, NM, α-syn. NM was induced in SN cultured neurons by using L-DOPA (Sulzer et al., 2000) (Sigma Aldrich). For foreign protein processing and subsequent antigen presentation, VM cultures were maintained for 7 days in either 1) BSA/serum-free neuronal medium, 2) BSA/serum-free supplemented with OVA (2.5 mg/ml), adding IFN-γ (100 ng/ml) or saline for an additional 72h.
Images were captured using a Leica SP5 microscope system. There was no fluorescence bleed-through of secondary antibodies under the conditions used. MHC-I label observed in the neuronal cultures obtained from wild type mice was absent in neurons from β2m KO mice (FIG. 3A).
In order to assess the proportion of TH^+ and MAP-2^+ neurons that expressed MHC-I^+, first TH^+ and MAP-2^+ neurons were counted in 24 fields surrounding the border of the well at 20× magnification. The number of TH^+ or MAP-2^+ neurons with intact soma and two or more neurites equal to or greater than the diameter of the cell soma was counted. Then, the fluorescent filter was inserted for each field to determine how many of these neurons also expressed MHC-I.

[5] = SIINFEKL, CTLs and medium conditioned by microglia exposed to the substance

N[C@@H](Cc1ccc(O)c(O)c1)C(=O)O [L-DOPA, L-dihydroxyphenylalanine]
neurons in which NM was induced [1]: 40% | TH+ neurons with MHC-I display ([1]; TH+ neurons): ~10% | TH− neurons with MHC-I display ([1]; TH− neurons): ~7%

C/C=C/[C@H]1O[C@@](O)([C@@H](C)[C@H](O)[C@H](C)[C@H]2OC(=O)/C(OC)=C/C(C)=C/[C@@H](C)[C@@H](O)[C@@H](CC)[C@@H](O)[C@H](C)C/C(C)=C/C=C/[C@@H]2OC)C[C@@H](O[C@H]2C[C@@H](O)[C@H](OC(N)=O)[C@@H](C)O2)[C@@H]1C [concanamycin A]
effect on CTL mediated neuronal death (VM DA (TH+) neurons [2]; neurons with IFN-γ, SIINFEKL and OT-1 cells): protect against CTL mediated neuronal death

SIINFEKL [8 amino acid peptide derived from OVA]
TH+ neurons with SIINFEKL-MHC-I immunolabel (VM DA (TH+) neurons [3]): ~70% | CTL proliferation (OT-1 CTL cells): induced similar CTL proliferation by both DC and VM neuronal cultures | neuronal death (VM DA (TH+) neurons [2]; combination of CTLs, IFN-γ and SIINFEKL, MHC-I null (KO) SN neurons): no neuronal death was triggered | TH+ neurons killed (VM DA (TH+) neurons [2]; combination of CTLs, IFN-γ and SIINFEKL, wild type neurons): 55%

lipopolysaccharide [LPS, reference compound]
IFN-γ secretion, in words [4]: induced IFN-γ secretion | cell surface MHC-I presentation by VM neurons (primary VM neurons): elicited cell surface MHC-I presentation | induction of neuronal MHC-I (primary VM neurons): no induction | neuronal death (VM DA (TH+) neurons [2]; [5]): caused extensive neuronal death

α-syn: alpha synuclein protein, wild type
cell surface MHC-I presentation by VM neurons (primary VM neurons): elicited cell surface MHC-I presentation | induction of neuronal MHC-I (primary VM neurons): no induction | neuronal death (VM DA (TH+) neurons [2]; [5]): caused extensive neuronal death
